Measurements reported in US12686686B2 (priority 2020, dated 2026).
Entries after “also recorded” stand apart in the source; their conditions may differ. Like-named read-outs stand apart in the source and are kept apart here.

What was measured:
C4-2B = test: Cytotoxic activity test (MTT) on C4-2B prostate cancer cells; format: cell-based, human; details: C4-2B cells
Description: (§1) All prostate cancer cells were cultured with a RPMI-1640 medium containing 10% calf serum, 100 units of penicillin per milliliter and 100 µg/mL of streptomycin in a constant temperature incubator containing 5% carbon dioxide at a saturated humidity of 37° C.
(§2) Cells in the logarithmic phase of growth were taken and cultured in 96-well plates for 24 hours (5×10^3 cells/well), then treated with different concentrations of the compounds to be tested, and incubated by MTT method for 4 hours. The supernatant was removed by centrifugation, the MTT crystals were dissolved by adding DMSO, and the absorbance value was measured by an enzyme-linked immunosorbent assay at a wavelength of 570 nm. The cytotoxic activity of the compounds to be tested on cancer cells was expressed as IC50.

C4-2B/ENZR = test: Cytotoxic activity test (MTT) on C4-2B/ENZR prostate cancer cells; format: cell-based, human; details: C4-2B/ENZR cells
Description: as §1, §2

LNcap = test: Cytotoxic activity test (MTT) on LNcap prostate cancer cells; format: cell-based, human; details: LNcap cells, MTT; read-out: Prostate cancer cells IC50 LNcap
Description: as §1, §2

Vcap-CRPC = test: Cytotoxic activity test (MTT) on Vcap-CRPC prostate cancer cells; format: cell-based, human; details: Vcap-CRPC cells, MTT; read-out: Prostate cancer cells IC50 Vcap-CRPC
Description: as §1, §2

22RV1 = test: Cytotoxic activity test (MTT) on 22RV1 prostate cancer cells; format: cell-based, human; details: 22RV1 cells, MTT; read-out: Prostate cancer cells IC50 22RV1
Description: as §1, §2

RWPE-1 = test: Cytotoxic activity test (MTT) on normal human prostate cell RWPE-1; format: cell-based
Description: as §1, §2

prostate cancer cells = test: Inhibitory activity on a variety of prostate cancer cells (Table 1); format: cell-based, human; details: structure-activity statements on Table 1
Description: as §1, §2

[1] = system: 22Rv1 human prostate cancer cells; test: Mice model for 22RV1 prostate cancer growth, oral administration experiment; format: in vivo, nod-scid male mice; details: 22RV1 tumor-bearing mice
Source text: (§3) First, a large number of 22RV1 cells were amplified. To ensure the success rate of tumor-bearing, the cell state needs to be adjusted to the optimal state. When the number of the cells was sufficient, the cells were digested and flushed twice with PBS buffer to remove fetal bovine serum (FBS) from the medium to reduce immune rejection. The cells were adjusted to 3000*10^4/mL after counting by a hemocytometer. Then 22Rv1 human prostate cancer cells […] were subcutaneously injected into a 4-5 weeks old nod-scid male mice with severe immunodeficiency.
When the tumor grew to a volume of about 100 mm^3, the mice were randomly divided into 3 groups to make sure that the average tumor volume was the same. The mice in the dosing group were orally gavaged with 0.5 mg/kg and 2 mg/kg of Compound YH-52 per day, and the mice in the control group were given the same volume of normal saline containing DMSO. The body weight of the mice and the length and width of the tumors were measured and recorded every 3 days. The subcutaneous tumors were taken and then photographed at the end of the experiment. The tumor volumes were calculated according to the equation: volume=length×width^2×π/6, and then counted. The experimental results are shown in FIG. 2A, FIG. 2B and FIG. 2C.

[2] = system: 22Rv1 human prostate cancer cells; test: Mice model for 22RV1 prostate cancer growth, intraperitoneal injection in combination with enzalutamide; format: in vivo, nod-scid male mice
Source text: as §3
When the tumor grew to about 100 mm^3, the mice were randomly divided into 4 groups to make sure that the average tumor volume was the same. […] The body weight of the mice and the length and width of the tumor were measured and recorded every 3 days. The subcutaneous tumors were taken and then photographed at the end of the experiment. The tumor volumes were calculated according to the equation: volume=length×width^2×π/6, and then counted. The experimental results are shown in FIG. 3A, FIG. 3B, FIG. 3C and FIG. 3D.

Row | SMILES | IC50 (C4-2B) [nM] | IC50 (C4-2B/ENZR) [nM] | IC50 (LNcap) [nM] | IC50 (Vcap-CRPC) [nM] | IC50 (22RV1) [nM] | IC50 (RWPE-1; normal human prostate cell RWPE-1, MTT, read-out: Normal cells RWPE-1 (IC50)) [nM] | inhibitory activity on prostate cancer cells (in words) (prostate cancer cells) | IC50 (RWPE-1; Homo sapiens, RWPE-1, read-out: Normal cells RWPE-1 (IC50)) [nM] | toxicity for the normal human prostate cell RWPE-1 (RWPE-1; compared with prototype compound YH-11) | tumor growth in mice ([1]; oral gavage 0.5 mg/kg per day) | tumor growth in mice ([1]; oral gavage 2 mg/kg per day) | effect in combination with ENZ ([2]; intraperitoneal injection 0.1 mg/kg in combination with ENZ (10 mg/kg)) | efficacy compared to the positive drug enzalutamide (ENZ) ([2]; intraperitoneal injection 0.1 mg/kg per day, ENZ 10 mg/kg)
1 | C=C(C)C12OC3(c4ccccc4)OC1C1C(O)C(O)(CO)C(O)C4(O)C(=O)C(C)=CC4C1(O3)C(C)C2OC(=O)c1ccccc1 (centres unmarked) [YH-51] | 7.81 | 77.4 | 2.51 | 2.02 | 1770 | 12300 | significantly reduced activity |  |  |  |  |  | 
2 | C=C(C)[C@@]12OC3(c4ccccc4)O[C@@H]1[C@@H]1[C@H](O)[C@](Br)(CO)[C@@H](O)[C@]4(O)C(=O)C(C)=C[C@H]4[C@@]1(O3)[C@H](C)[C@H]2OC(=O)c1ccccc1 [YH-52] |  |  |  |  |  |  | most prominent; also recorded: enhanced activity | 53600 | significantly reduced toxicity | significantly inhibit tumor growth | significantly inhibit tumor growth | significant synergistic effect | greater efficacy
